Data set [1] can be described thus: Side-chain acidity: pKa by 1H NMR titration of free amino acids. The class given is physicochemical. Particulars: for pKa: aqueous KH2PO4 solution titrated with sodium hydroxide; for pKa of the phenolic side-chain: experimental error ±0.15. The procedure:
10–20 mg of an amino acid, 50 mg of KH2PO4 was dissolved in 15 ml of water and titrated by sodium hydroxide solution to distinct pH values. 500 μl were taken to NMR tubes, 50 μl deuterium oxidewas added and ^1H NMR spectra were measured using W5 pulse tray water suppression at 500 MHz frequency. The chemical shifts were plotted against pH and analyzed using Henderson-Hasselbalch equation to deliver the pKa values. Experimental error ±0.15.

The target of another data set is FtsZ-YFP-mts (Escherichia coli, UniProt P0A9A6). It is filed as biochemical. Particulars: 5 μM protein, 1 mM GTP; for GTPase activity, Average: average of two repeats; for GTPase activity, single repeats: repeat 1 and repeat 2. Also noted: made in house; host or cells: E. coli BL21(DE3) for the wild type. The procedure:
Reactions were performed every 20 s for a total time of 120 s. After 30 min of incubation with BIOMOL® GREEN at room temperature, the absorbance of the samples at 620 nm was monitored by TECAN plate reader. The phosphate release concentrations were calculated based on a phosphate standard curve.

The target of data set [2] is T1, MjTyrRS variants (Methanocaldococcus jannaschii, UniProt Q57834, D158A/F108Q/H70G/L162N/L65E/Q109C/Y32G).
T1 construct: expressed in transfected cells
Put plainly: Intact cell fluorescence assay of HYs incorporation into SUMO-sfGFP. It is filed as cell-based. Particulars: for Fluorescence Instensity: Synthetase B48RS. As to the method:
(§1) The intact cell fluorescence assay was performed to approximately compare the Br2Y and Cl2Y incorporation efficiency of screened MjTyrRSs as well as to estimate their promiscuity against other Tyr analogues. Since the gene expression of SUMO-sfGFP was driven by T5 promoter on the one round positive selection plasmid, SUMO-sfGFP can be directly expressed in DH10b strain. […] Next day, an overnight culture was inoculated in a well at a ratio of 1:100 containing 300 μL TB medium supplemented with 50 μg/mL Kan,100 μg/mL Amp, 0.5 mM IPTG as well as 1 mM HYs while the corresponding control lacked the HYs. Cells were grown in 96 well plates (Ibidi) with orbital shaking (2 mm amplitude) for 24 h at 37 °C covered with a gas-permeable foil (Sigma Aldrich, Taufkirchen, Germany). […] After 24 h incubation, the optimal density and fluorescence was measured via top reading after the gas-permeable foil was removed. Each measurement was done in triplicate.

The subject of data set [3] is MjTyrRS variants. The description is as above. It is filed as cell-based, Methanocaldococcus jannaschii. As to the method:
as §1

The target in data set [4] is T2, MjTyrRS variants (Methanocaldococcus jannaschii, UniProt Q57834, D158A/F108N/H70G/L162C/L65E/Y32V).
T2 construct: expressed in transfected cells
Described as above. The conditions noted are these: Synthetase C64RS. The class given is cell-based. The procedure: as §1

Data set [5] concerns the molecule itself. The data set is described as follows: dynamic light scattering; 12.5 µM FtsZ in SLB buffer (50 mM Tris-HCl pH 7.5, 150 mM KCl), 25 °C, 90° light scattering; polymerisation started by adding 4 mM GTP, followed for at least 70 min.
The mark [6] stands for this setting: experimental error ±0.15, read-out: Ammonium pKa.
The mark [7] stands for this setting: experimental error ±0.15, read-out: pKa of the phenolic side-chain.

Where “and” joins values, the source holds several entries; their conditions need not be identical. Equal values may be shown once. Read-outs that look alike come from different tables or passages of the source.

T2 sequence (Q57834 whole entry Y32V/L65E/H70G/F108N/D158A/L162C): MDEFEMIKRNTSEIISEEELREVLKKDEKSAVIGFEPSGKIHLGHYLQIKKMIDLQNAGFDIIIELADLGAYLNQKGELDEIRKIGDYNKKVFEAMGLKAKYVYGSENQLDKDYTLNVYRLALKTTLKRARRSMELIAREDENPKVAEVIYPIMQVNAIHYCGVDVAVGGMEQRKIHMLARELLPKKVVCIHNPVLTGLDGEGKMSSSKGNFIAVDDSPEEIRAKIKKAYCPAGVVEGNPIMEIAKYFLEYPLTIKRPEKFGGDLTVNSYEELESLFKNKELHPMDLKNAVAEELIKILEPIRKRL
T1 sequence (Q57834 whole entry Y32G/L65E/H70G/F108Q/Q109C/D158A/L162N): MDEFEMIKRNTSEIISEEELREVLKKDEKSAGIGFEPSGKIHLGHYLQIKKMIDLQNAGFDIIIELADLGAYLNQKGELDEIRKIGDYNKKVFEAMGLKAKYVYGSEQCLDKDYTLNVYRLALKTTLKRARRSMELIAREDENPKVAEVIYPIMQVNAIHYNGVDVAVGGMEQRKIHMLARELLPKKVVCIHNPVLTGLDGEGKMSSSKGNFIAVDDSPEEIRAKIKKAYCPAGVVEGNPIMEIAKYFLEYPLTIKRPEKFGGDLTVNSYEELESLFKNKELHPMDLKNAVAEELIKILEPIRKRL

For orientation: pKa means the negative logarithm of the acid dissociation constant. In the case of `N[C@@H](Cc1cc(Br)c(O)c(Br)c1)C(=O)O` [Br2Y, 3,5-dibromo-L-tyrosine], the values for the pKa in data set [1] (setting [6]) and in data set [1] (setting [7]) were 9.47 and 6.5, respectively. In addition, in data set [1], the “pKa of the phenolic side-chain” value was 6.42 and 6.4. The “GTPase activity, Average” value with FtsZ-YFP-mts worked out at 3.469 pi/min. Moreover, the “GTPase activity, single repeats” value with FtsZ-YFP-mts is 3.2195 pi/min and 3.7182 pi/min. Moreover, the “Fluorescence Instensity” value is 0.6442 a.u. and 0.7285 a.u. and 0.5778 a.u on MjTyrRS variants [2]; 0.3153 a.u. and 0.3784 a.u. and 0.2551 a.u in the data set on MjTyrRS variants [3] (Synthetase B4RS); 0.5915 a.u. and 0.6712 a.u. and 0.4959 a.u with MjTyrRS variants [3] (Synthetase B12RS); 0.6 a.u. and 0.6999 a.u. and 0.4943 a.u in the data set on MjTyrRS variants [3] (Synthetase B37RS); 0.615 a.u. and 0.7381 a.u. and 0.4945 a.u with MjTyrRS variants [3] (Synthetase B39RS); 0.6366 a.u. and 0.6936 a.u. and 0.5742 a.u in the data set with MjTyrRS variants [3] (Synthetase C5RS). In addition, the “Fluorescence Instensity” value in the data set with MjTyrRS variants [3] (Synthetase C45RS) is 0.5945 a.u. and 0.6865 a.u. and 0.5035 a.u; in the data set on MjTyrRS variants [3] (Synthetase C61RS) it was 0.4306 a.u. and 0.4884 a.u. and 0.3801 a.u; at MjTyrRS variants [4], 0.543 a.u. and 0.6311 a.u. and 0.4752 a.u. Also, at MjTyrRS variants [2] (mutant B48RS, 1 mM HY, E. coli DH10b), the “Incorporation efficiency (sfGFP fluorescence) versus control without HYs additions” value is “more than 100 fold”.
For `N[C@@H](Cc1cc(I)c(O)c(I)c1)C(=O)O` [I2Y, 3,5-diiodo-L-tyrosine], the figures for the pKa in data set [1] (setting [6]) and in data set [1] (setting [7]) were 9.38 and 6.5, respectively. Further, the “pKa of the phenolic side-chain” value in data set [1] was found to be 6.45. Also, the “GTPase activity, Average” value with FtsZ-YFP-mts amounted to 1.222 pi/min. Moreover, in the data set with FtsZ-YFP-mts, the “GTPase activity, single repeats” value is 1.132 pi/min and 1.3119 pi/min. In addition, the “Fluorescence Instensity” value was 0.00608 a.u. and 0.00634 a.u. and 0.00611 a.u at MjTyrRS variants [2]; 0.01117 a.u. and 0.01123 a.u. and 0.01112 a.u in the data set on MjTyrRS variants [3] (Synthetase B4RS); 0.07137 a.u. and 0.08741 a.u. and 0.05734 a.u with MjTyrRS variants [3] (Synthetase B12RS); 0.1118 a.u. and 0.1372 a.u. and 0.08534 a.u in the data set on MjTyrRS variants [3] (Synthetase B37RS); 0.1743 a.u. and 0.1958 a.u. and 0.1504 a.u in the data set with MjTyrRS variants [3] (Synthetase B39RS); 0.07608 a.u. and 0.1006 a.u. and 0.05086 a.u with MjTyrRS variants [3] (Synthetase C45RS). Besides, the “Fluorescence Instensity” value on MjTyrRS variants [4] was 0.1172 a.u. and 0.1504 a.u. and 0.08392 a.u.
As for `N[C@@H](Cc1ccc(O)c(I)c1)C(=O)O` [IY, 3-iodo-L-tyrosine], the pKa in data set [1] (setting [6]) stood at 9.37; in data set [1] (setting [7]), 8.3. The “GTPase activity, single repeats” value in the data set with FtsZ-YFP-mts was 1.6686 pi/min and 1.8578 pi/min. For the same molecule, the “Fluorescence Instensity” value on MjTyrRS variants [2] is 0.5153 a.u. and 0.5773 a.u. and 0.4545 a.u; in the data set with MjTyrRS variants [3] (Synthetase B12RS), 0.5049 a.u. and 0.5603 a.u. and 0.4548 a.u; in the data set on MjTyrRS variants [3] (Synthetase B37RS), 0.268 a.u. and 0.305 a.u. and 0.2304 a.u; with MjTyrRS variants [3] (Synthetase B39RS) it was 0.1745 a.u. and 0.1928 a.u. and 0.1452 a.u; in the data set with MjTyrRS variants [3] (Synthetase C5RS) it was 0.6274 a.u. and 0.698 a.u. and 0.5495 a.u; with MjTyrRS variants [3] (Synthetase C45RS) it was 0.7321 a.u. and 0.8284 a.u. and 0.6034 a.u. Besides, the “Fluorescence Instensity” value was 0.5143 a.u. and 0.5653 a.u. and 0.452 a.u in the data set on MjTyrRS variants [3] (Synthetase C61RS); 0.4349 a.u. and 0.5128 a.u. and 0.3571 a.u at MjTyrRS variants [4].

B1: wild type FtsZ-YFP-mts (domain or fragment, UniProt P0A9A6 1-366, looked up)
chain: MFEPMELTNDAVIKVIGVGGGGGNAVEHMVRERIEGVEFFAVNTDAQALRKTAVGQTIQIGSGITKGLGAGANPEVGRNAADEDRDALRAALEGADMVFIAAGMGGGTGTGAAPVVAEVAKDLGILTVAVVTKPFNFEGKKRMAFAEQGITELSKHVDSLITIPNDKLLKVLGRGISLLDAFGAANDVLKGAVQGIAELITRPGLMNVDFADVRTVMSEMGYAMMGSGVASGEDRAEEAAEMAISSPLLEDIDLSGARGVLVNITAGFDLRLDEFETVGNTIRAFASDNATVVIGTSLDPDMNDELRVTVVATGIGMDKRPEITLVTNKQVQQPVMDRYQQHGMAPLTQEQKPVAKVVNDNAPQTA
notes: FtsZ, prokaryotic cell-division protein (ftsZ gene product), truncated to residues 1-366; also called FtsZ chimera; FtsZ(1-366) fused with YFP and mts; source: E. coli BL21(DE3), pET-11b, purified (ammonium sulphate precipitation, anion exchange Q-Sepharose)
Take B1: in data set [5], the binding result is listed as “binds”.
